Drawing on patent US5493007A, “Platelet aggregation inhibitors having high specificity for GPIIBIIIA” (Genentech, Inc., priority 1994, dated 1996), this text covers IC50 for six compounds.

Where a SMILES comes first, the peptide text is derived from it. Bridges are numbered along the chain shown (N, C = ends). [ ]: non-standard residue; d: D form. The star is where a group is joined. NH(CH2)3NH2 = NCCCN*

The target in assay [1] is Fibronectin Receptor (Homo sapiens, UniProt P05556+P08648). The assay is described as follows: Human Fibronectin-Fibronectin Receptor ELISA Assay. It counts as binding. The arrangement: octylglucoside (OG) extracted human placenta; from tissue; host or cells: human placenta. The note with it: human placenta fibronectin receptor, fibronectin-coated plates; read-out: ELISA IC50 Fibronectin FnR. The method, then: Fibronectin receptor is purified according to the procedures of Pytela et al., (Methods Enzymol. 144:475 […]). Briefly, fibronectin receptor is purified employing an Arg-Gly-Asp affinity chromatography from (100 mM) octylglucoside (OG) extracted human placenta. The OG extract is filtered over Sepharose 6B GRGDSPK column. The column is washed three times with three column volumes of Tris-buffered saline (TBS) TBS, 1 mM CaCl2, and 25 mM OG. The receptor is eluted with TBS, 20 mM EDTA, and 25 mM Octyl thioglucoside, and is stored in 1 mM CaCl2, 1 mM MgCl2, at -80° C.
Microtiter plates are coated with 110 μl human fibronectin (at 2 μg/ml) in TBS. Plates are washed three times with TBS containing 0.05% Tween 20. Test inhibitors are then added after washing in 10 microliter aliquots. The fibronectin receptor is added in 2-fold serial dilutions with TBS containing 20 mM octyl glucoside and 2 mM MnCl2. Plates are incubated three hours at room temperature, and washed with 200 μl TBS-Tween 20 buffer. 100 μl of affinity-purffied rabbit anti-human fibronectin receptor antibody is added to the wells and the plates are incubated two hours, washed twice with TBS-Tween and once with distilled water. Affinity-purified goat anti-rabbit IgG conjugated to horseradish peroxidase (100 μl) is added to each well followed by incubation for 60 minutes at room temperature. Plates are again washed twice with TBS-Tween and distilled water. 100 μl of substrate mixture (10 mg o-phenylenediamine in 25 ml 0.1M citrate-phosphate buffer, pH 5.0 6 μ30% H2 O2) is added to the plates and allowed to develop. The development process is stopped by adding 50 μl of 4N H2 SO4 to each well and read at […].
In general terms: In an ELISA, binding on a coated surface is turned into a signal by an enzyme label.

Assay [2] concerns the target GP IIb IIIa (Homo sapiens, UniProt P05106+P08514). The assay is described as follows: Fibrinogen-GP IIb IIIa Receptor ELISA Binding Assay. The arrangement: from tissue; host or cells: outdated human platelets. The note with it: purified human platelet GP IIb IIIa, fibrinogen-coated plates; read-out: ELISA IC50 Fibrinogen GPIIb IIIa. The method, then:
The method used is essentially that described in Nachman and Leung (J. Clin. Invest., 69:263-269 [1982]). The GP IIb IIIa is essentially purified as described in Fitzgerald et al., (Anal. Biochem. 151:169-177 [1985]).
Outdated human platelets are washed 3 times with 10 mM tris-HCl, 150 mM NaCl (TBS), 1 mM EDTA, pH 7.5, and centrifuged at 2000×g to pellet cells. Cells are lysed in 5 pellet volumes of TBS, 1% Triton X-100, 1 mM Ca2 Cl2, and followed by centrifugation at 30,000×g. The supernatant fraction is collected and the supernatant is loaded onto a concanavalin-A column, previously equilibrated in TBS, 1 mM Ca2 Cl2, 0.1% Triton, 0.05% NaN3 and eluted with 0.2M α-methylmannoside. Fractions are pooled and loaded onto a heparin-agarose column. The flowthrough is collected and concentration on an Amicon YM 30 filter to a volume of approximately 5-10 mi. The concentrate is then applied to an S-300 column (500 ml) and 6 ml fractions are collected. The GP IIb IlIa containing fractions are collected, pooled, and stored at -80° C.
The purification of fibrinogen is conducted essentially as described by Lipinska et al., (J. Lab. Clin. Med. 507, [1974]). Briefly, a 0.3% w/v solution of human fibrinogen (Kabi #5302) is dissolved in 150 mM NaCl. Saturated (NH4)2 SO4 is added dropwise with stirring to the fibrinogen solution to obtain about 16% saturation. The precipitate is spun down in appropriate size bottles at 2000×g. The supernatant is decanted and the precipitate resuspended in 150 mM NaCl (approximately 50% of the original volume). NH4 SO4 is again added dropwise to obtain 16% saturation. The suspension is spun down and the precipitate is resuspended in Tris-saline in a minimal volume (approximately 5% of the original volume). Any remaining insoluble material is spun down at 2000 rpm in a Sorval type centrifuge and the fibrinogen supernatant is decanted and dialyzed overnight at 4° C. against Tris-saline. Characterization of the fibrinogen is by the Bradford protein assay, SDS-PAGE, and/or Western blotting using well known standard procedures.
Briefly, 96 well plates are coated (Type Nunc 1 Maxisorp™) with 10 μg/ml purified fibrinogen (100 μl/well), and allowed to stand overnight at 4° C. The plates are washed three times with PBS Tween (0.137M NaCl, 0.003M KCl, 0.008M Na2 HPO4, 0.001M KH2 PO4, pH 7.4 at room temperature, 0.05% Tween-20) and blocked for 1 to 2 hours at room temperature with 200 μl/well TNCNT (which is 0.5% BSA, 20mM Tris, pH 7.5 at room temperature, 120 mM NaCl, 0.2% NAN3, 2mM CaCl2, 0.05% Tween 20, 0.5% BSA [Calbiochem RIA grade or better]) on a plate shaker. The plates are again washed three times with PBS/Tween and then 50 μl of sample in TNCNT is added. The mixture is incubated for 15 minutes at room temperature on a plate shaker. The stock solution of purified GP IIb IIIa receptor from human platelets, (0.4-1.0 mg/ml GP IIb IIIa in 0.1% Triton X-100, 1 mM CaCl2, 20 mM Tris, 150 mM NaCl, 0.05% NaN3 in 0.3M N-acetyl glucosamine pH 7.5, stored at -70° C.), is reconstituted to about 40 μg/ml in TNCNT. Fifty μl of this diluted GP IIb IIIa is then added to each well and incubated on a plate shaker at room temperature. After one hour, the plates are washed four times with PBS/Tween and 100 μl of a polyclonal or monoclonal antibody specific for GP IIIa such as AP3 (1 μg/ml) (See e.g. Newman et al., Blood, 65:227-232 [1985]) in ELISA buffer (PBS, 0.5% BSA, 0.05% Tween 20, 0.01% Thimerasol) is added. After a one hour incubation at room temperature on a plate shaker, the samples are washed 4 times with PBS/Tween. One hundred μl of GAM-HRP (horse radish peroxidase conjugate of goat anti-mouse IgG [Pel-Freeze Cat. 715305-1] dissolved in ELISA buffer) previously diluted to 1:10,000 is then added and the samples are incubated 1 hour at room temperature on a plate shaker. […]

GP IIb IIIa, sequence (P08514 32-887 limits assumed): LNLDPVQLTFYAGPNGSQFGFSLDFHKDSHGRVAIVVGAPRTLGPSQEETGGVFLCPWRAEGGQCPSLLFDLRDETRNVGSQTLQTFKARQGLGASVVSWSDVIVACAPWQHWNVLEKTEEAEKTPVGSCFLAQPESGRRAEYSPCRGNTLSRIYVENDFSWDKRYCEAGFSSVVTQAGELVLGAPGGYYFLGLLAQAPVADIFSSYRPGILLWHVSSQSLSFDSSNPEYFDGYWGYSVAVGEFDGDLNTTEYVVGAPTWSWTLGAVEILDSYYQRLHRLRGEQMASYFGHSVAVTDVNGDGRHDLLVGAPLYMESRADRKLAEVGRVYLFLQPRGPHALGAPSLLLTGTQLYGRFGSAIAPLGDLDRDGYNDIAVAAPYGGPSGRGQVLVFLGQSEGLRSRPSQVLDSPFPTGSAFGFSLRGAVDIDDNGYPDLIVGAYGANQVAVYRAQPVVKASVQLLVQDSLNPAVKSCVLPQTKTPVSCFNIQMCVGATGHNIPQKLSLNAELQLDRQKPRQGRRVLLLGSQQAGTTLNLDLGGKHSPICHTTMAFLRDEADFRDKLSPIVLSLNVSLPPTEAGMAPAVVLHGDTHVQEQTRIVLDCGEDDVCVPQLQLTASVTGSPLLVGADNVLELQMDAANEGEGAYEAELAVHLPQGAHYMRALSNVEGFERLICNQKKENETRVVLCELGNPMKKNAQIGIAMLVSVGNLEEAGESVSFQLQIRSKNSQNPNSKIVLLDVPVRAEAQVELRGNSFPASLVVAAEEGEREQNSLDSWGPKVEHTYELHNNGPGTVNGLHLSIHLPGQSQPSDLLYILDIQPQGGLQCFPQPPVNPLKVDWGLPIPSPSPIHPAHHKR
GP IIb IIIa, sequence (P08514 891-1039 partner limits assumed): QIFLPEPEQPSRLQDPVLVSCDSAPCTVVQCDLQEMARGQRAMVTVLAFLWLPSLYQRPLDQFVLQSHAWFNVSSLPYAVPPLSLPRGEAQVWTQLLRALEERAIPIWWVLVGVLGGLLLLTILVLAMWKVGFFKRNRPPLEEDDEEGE
GP IIb IIIa, sequence (P05106 27-788): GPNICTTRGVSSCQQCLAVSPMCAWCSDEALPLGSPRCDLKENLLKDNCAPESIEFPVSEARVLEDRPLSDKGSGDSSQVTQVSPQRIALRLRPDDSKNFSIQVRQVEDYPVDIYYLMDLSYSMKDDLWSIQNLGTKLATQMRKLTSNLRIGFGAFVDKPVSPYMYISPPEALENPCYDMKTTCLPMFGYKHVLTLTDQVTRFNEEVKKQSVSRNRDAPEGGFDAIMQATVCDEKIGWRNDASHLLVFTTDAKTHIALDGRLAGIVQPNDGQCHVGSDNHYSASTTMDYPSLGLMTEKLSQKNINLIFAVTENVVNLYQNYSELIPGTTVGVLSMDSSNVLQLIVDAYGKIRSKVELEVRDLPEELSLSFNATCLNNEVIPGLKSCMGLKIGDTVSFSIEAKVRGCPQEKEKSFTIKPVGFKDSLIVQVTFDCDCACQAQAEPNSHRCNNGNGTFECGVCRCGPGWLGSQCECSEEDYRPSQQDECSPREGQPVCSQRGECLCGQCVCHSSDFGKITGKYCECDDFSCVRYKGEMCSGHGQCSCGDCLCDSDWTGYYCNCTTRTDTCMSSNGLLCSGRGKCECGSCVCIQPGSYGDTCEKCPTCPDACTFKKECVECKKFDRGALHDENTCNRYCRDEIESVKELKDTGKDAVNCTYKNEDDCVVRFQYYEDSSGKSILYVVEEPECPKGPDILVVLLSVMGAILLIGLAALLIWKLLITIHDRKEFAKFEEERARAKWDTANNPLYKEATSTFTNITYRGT
Fibronectin Receptor, sequence (P08648 42-894 limits assumed): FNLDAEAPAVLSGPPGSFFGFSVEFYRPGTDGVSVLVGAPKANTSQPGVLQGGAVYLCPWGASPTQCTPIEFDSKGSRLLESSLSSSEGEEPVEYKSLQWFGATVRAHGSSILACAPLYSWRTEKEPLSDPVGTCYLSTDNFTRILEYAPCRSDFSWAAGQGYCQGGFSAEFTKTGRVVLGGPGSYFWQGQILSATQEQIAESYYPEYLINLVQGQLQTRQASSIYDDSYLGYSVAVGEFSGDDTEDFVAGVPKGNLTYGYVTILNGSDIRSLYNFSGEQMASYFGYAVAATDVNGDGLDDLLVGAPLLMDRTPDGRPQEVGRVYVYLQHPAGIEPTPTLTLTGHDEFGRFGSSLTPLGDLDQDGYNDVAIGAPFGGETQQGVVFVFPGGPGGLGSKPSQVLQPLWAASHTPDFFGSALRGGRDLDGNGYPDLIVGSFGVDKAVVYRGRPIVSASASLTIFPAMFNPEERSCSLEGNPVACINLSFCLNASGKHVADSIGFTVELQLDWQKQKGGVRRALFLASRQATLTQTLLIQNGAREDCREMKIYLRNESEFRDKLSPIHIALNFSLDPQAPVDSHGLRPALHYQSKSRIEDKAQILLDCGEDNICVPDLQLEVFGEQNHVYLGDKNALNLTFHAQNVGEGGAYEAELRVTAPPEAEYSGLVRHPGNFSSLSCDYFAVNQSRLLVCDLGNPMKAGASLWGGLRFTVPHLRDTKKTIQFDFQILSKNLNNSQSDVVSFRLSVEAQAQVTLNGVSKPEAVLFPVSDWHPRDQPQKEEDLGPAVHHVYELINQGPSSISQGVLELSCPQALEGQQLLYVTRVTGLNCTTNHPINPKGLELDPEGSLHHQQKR
Fibronectin Receptor, sequence (P08648 895-1049 partner limits assumed): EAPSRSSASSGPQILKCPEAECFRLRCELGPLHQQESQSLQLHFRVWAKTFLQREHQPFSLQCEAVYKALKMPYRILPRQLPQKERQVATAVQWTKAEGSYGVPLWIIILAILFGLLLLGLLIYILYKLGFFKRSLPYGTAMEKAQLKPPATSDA
Fibronectin Receptor, sequence (P05556 21-798): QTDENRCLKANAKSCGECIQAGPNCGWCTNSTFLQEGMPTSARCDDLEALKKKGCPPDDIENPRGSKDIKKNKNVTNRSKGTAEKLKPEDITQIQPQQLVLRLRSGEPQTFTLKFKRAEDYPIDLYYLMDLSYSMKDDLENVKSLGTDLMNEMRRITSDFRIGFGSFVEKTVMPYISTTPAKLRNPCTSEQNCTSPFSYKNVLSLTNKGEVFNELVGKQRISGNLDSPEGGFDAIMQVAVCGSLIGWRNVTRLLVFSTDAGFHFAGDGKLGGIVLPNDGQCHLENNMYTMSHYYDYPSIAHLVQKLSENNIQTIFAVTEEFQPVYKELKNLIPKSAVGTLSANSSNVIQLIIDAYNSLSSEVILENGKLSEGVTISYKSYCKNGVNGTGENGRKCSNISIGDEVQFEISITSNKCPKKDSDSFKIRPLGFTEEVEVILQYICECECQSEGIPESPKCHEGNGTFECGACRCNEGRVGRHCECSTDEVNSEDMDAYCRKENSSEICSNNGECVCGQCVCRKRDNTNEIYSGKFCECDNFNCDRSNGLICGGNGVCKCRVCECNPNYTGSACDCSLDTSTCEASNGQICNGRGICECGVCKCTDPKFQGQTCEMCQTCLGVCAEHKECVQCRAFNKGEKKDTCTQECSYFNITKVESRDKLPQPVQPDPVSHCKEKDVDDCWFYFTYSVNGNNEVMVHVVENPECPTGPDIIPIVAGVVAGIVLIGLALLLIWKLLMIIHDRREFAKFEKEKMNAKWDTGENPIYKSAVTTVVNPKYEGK

By IC50 is commonly meant the concentration that gives 50% inhibition. `N=C(N)NCCC[C@@H]1NC(=O)[C@@H](Cc2ccc(O)cc2)NC(=O)CSC[C@@H](C(=O)NCCCN)NC(=O)[C@H](CC(=O)O)NC(=O)CNC1=O` [8/22, cyclo-S-acetyl-dTyr--Arg--Gly--Asp--Cys--NH--X (X = propyl amine)] ({CH2CO}-[dY]RGDC-{NH(CH2)3NH2}; thioether N-5): the IC50 in assay [1] worked out at 176 nM; in assay [2] it was 15 nM.

For `N=C(N)NCCC[C@@H]1NC(=O)[C@@H](Cc2ccc(O)cc2)NC(=O)CSC[C@@H](C(=O)N[C@@H](CCCCN)C(N)=O)NC(=O)[C@H](CC(=O)O)NC(=O)CNC1=O` [7/3, cyclo-S-acetyl-dTyr--Arg--Gly--Asp--Cys--Lys--NH2] ({CH2CO}-[dY]RGDCK-NH2; thioether N-5), the values for the concentration for half-maximal inhibition (IC50) in assay [1] and in assay [2] were 201 nM and 17 nM, respectively.

On to `N=C(N)NCCC[C@@H]1NC(=O)[C@@H](Cc2ccc(O)cc2)NC(=O)CSC[C@@H](C(=O)N[C@H](CCCCN)C(N)=O)NC(=O)[C@H](CC(=O)O)NC(=O)CNC1=O` [7/4, cyclo-S-acetyl-dTyr--Arg--Gly--Asp--Cys--dLys--NH2] ({CH2CO}-[dY]RGDC[dK]-NH2; thioether N-5), for which the IC50 in assay [1] worked out at 66 nM; in assay [2] it was 8.3 nM.

Turning to `N=C(N)NCCC[C@H](NC(=O)[C@H](Cc1ccc(O)cc1)NC(=O)[C@@H]1CSCC(=O)N[C@H](Cc2ccc(O)cc2)C(=O)N[C@@H](CCCNC(=N)N)C(=O)NCC(=O)N[C@@H](CC(=O)O)C(=O)N1)C(N)=O` [7/7, cyclo-S-acetyl-dTyr--Arg--Gly--Asp--Cys--Tyr--Arg--NH2] ({CH2CO}-[dY]RGDCYR-NH2; thioether N-5), the IC50 worked out at 27 nM in assay [1] and 8.9 nM in assay [2].

Turning to `N=C(N)NCCC[C@H](NC(=O)[C@@H]1CSCC(=O)N[C@H](Cc2ccc(O)cc2)C(=O)N[C@@H](CCCNC(=N)N)C(=O)NCC(=O)N[C@@H](CC(=O)O)C(=O)N1)C(N)=O` [7/1, cyclo-S-acetyl-dTyr--Arg--Gly--Asp--Cys--Arg--NH2] ({CH2CO}-[dY]RGDCR-NH2; thioether N-5), the IC50 in assay [1] worked out at 57 nM; in assay [2], 10 nM.

With `N=C(N)NCCC[C@@H]1NC(=O)[C@@H](Cc2ccc(O)cc2)NC(=O)C(CCCCN)SC[C@@H](C(=O)O)NC(=O)[C@H](CC(=O)O)NC(=O)CNC1=O` (single isomer, unassigned) [9/11, cyclo-S-2-L-(6-aminocaproyl)-Lys--dTyr--Arg--Gly--Asp--Cys--OH], the IC50 was determined as 160 nM in assay [1] and 14.3 nM in assay [2].
